Experimental findings from patent US11033539B2, “Compounds of formulas (VII), (VIII), (IX), (XI), (XII), (XIII), and (XIV) as muscarinic receptor 4(M4) antagonists for treating neurological diseases” (Neurocrine Biosciences, Inc., priority 2015, dated 2021) are described below.

This experiment addresses human M4 receptor (Homo sapiens (Human), UniProt P08173). The experiment in a line: Radioligand (tritiated N-methylscopolamine) binding assay, M4. Conditions: Ki against the M4 receptor; membranes from CHO cells expressing human M4; tritiated N-methylscopolamine 1.5 nM; read-out: Ki. The method, boiled down: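 Inhibition of radioligand binding gave Ki. The assay used recombinant CHO membranes, 1.5 nM tracer, a 90 min/37 °C incubation and pH 7.4 buffer.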

Chain of human M4 receptor (P08173 whole entry): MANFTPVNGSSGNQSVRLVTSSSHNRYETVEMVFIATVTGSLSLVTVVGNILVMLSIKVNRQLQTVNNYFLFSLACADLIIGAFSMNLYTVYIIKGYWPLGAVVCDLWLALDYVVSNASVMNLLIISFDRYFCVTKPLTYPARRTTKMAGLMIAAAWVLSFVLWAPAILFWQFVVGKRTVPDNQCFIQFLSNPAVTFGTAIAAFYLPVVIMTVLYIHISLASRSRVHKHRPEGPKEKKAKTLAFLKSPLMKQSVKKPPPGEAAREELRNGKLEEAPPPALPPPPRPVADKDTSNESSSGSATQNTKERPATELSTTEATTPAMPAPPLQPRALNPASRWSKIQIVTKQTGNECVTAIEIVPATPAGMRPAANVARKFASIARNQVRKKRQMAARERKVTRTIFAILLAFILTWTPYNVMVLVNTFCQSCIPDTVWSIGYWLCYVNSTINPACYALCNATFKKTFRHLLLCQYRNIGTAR

For orientation: Ki means the dissociation constant of the complex between target and ligand, obtained from inhibition or displacement. For `N#Cc1ccc(N2CCN(C(=O)NCCC3CCN(Cc4ccccc4)CC3)CC2)nc1` [8-45, N-[2-(1-benzylpiperidin-4-yl)ethyl]-4-(5-cyanopyridin-2-yl)piperazine-1-carboxamide], the Ki was 100 to 1000 nM.

For `O=C(NCCC1CCN(Cc2ccccc2)CC1)N1CCC(n2nnc3ccccc32)CC1` [8-46, 4-(1H-1,2,3-benzotriazol-1-yl)-N-[2-(1-benzylpiperidin-4-yl)ethyl]piperidine-1-carboxamide], the Ki was 100 to 1000 nM.

Consider `O=C(NCCC1CCN(Cc2ccccc2)CC1)N1CCN(c2ncccc2Cl)CC1` [8-47, N-[2-(1-benzylpiperidin-4-yl)ethyl]-4-(3-chloropyridin-2-yl)piperazine-1-carboxamide], for which the Ki was in the range of 100 to 1000 nM.

For the compound `O=C(c1ccc(-c2ccccc2)cc1)N(C1CC1)C1CCN(Cc2ccccc2)CC1` [9-2, N-(1-benzylpiperidin-4-yl)-N-cyclopropyl-4-phenylbenzamide], the Ki lay in the range of 100 to 1000 nM.

Regarding `O=C(C1CCN(c2ccc(OC(F)(F)F)cc2)CC1)N(CCO)CCC1CCN(Cc2ccccc2)CC1` [9-3, N-[2-(1-benzylpiperidin-4-yl)ethyl]-N-(2-hydroxyethyl)-1-[4-(trifluoromethoxy)phenyl]piperidine-4-carboxamide], the Ki was in the range of 100 to 1000 nM.

With `Cc1nc(-c2ccc(Cl)cc2)sc1C(=O)NCCC1CCN(Cc2ccccc2)CC1` [9-4, N-[2-(1-benzylpiperidin-4-yl)ethyl]-2-(4-chlorophenyl)-4-methyl-1,3-thiazole-5-carboxamide], the Ki lay within 100 to 1000 nM.

Take `O=C(NCCC1(CO)CCN(Cc2ccccc2)CC1)C1CCN(c2cccc(OC(F)(F)F)c2)CC1` [9-11, N-{2-[1-benzyl-4-(hydroxymethyl)piperidin-4-yl]ethyl}-1-[3-(trifluoromethoxy)phenyl]piperidine-4-carboxamide]: the Ki lay in the range of 10 to 100 nM.

On to `O=C(NCCC1CCN(Cc2ccccc2)CC1)c1ccc(-c2ccc(Cl)cc2)cc1F` [9-12, N-[2-(1-benzylpiperidin-4-yl)ethyl]-4-(4-chlorophenyl)-2-fluorobenzamide], for which the Ki fell in the range of 10 to 100 nM.

As for `O=C(NCCC1(CO)CCN(Cc2ccccc2)CC1)C1CCN(c2ccc(OC(F)(F)F)cc2)CC1` [9-13, N-{2-[1-benzyl-4-(hydroxymethyl)piperidin-4-yl]ethyl}-1-[4-(trifluoromethoxy)phenyl]piperidine-4-carboxamide], the Ki lay within 10 to 100 nM.

As to `COC(=O)c1ccc(-c2ccc(C(=O)NCCC3CCN(Cc4ccccc4)CC3)cc2)cc1` [9-14, methyl 4-(4-{[2-(1-benzylpiperidin-4-yl)ethyl]carbamoyl}phenyl)benzoate], the Ki was in the range of 10 to 100 nM.

For the compound `N#Cc1cc(N2CCC(C(=O)NC[C@H](O)C3CCN(Cc4ccccc4)CC3)CC2)ccc1F` [9-15, N-[(2R)-2-(1-benzylpiperidin-4-yl)-2-hydroxyethyl]-1-(3-cyano-4-fluorophenyl)piperidine-4-carboxamide], the Ki was in the range of 10 to 100 nM.

With `O=C(NCCC1CCN(Cc2ccccc2)CC1)c1ccc(-c2ccc(C(F)(F)F)cc2)cc1` [9-16, N-[2-(1-benzylpiperidin-4-yl)ethyl]-4-[4-(trifluoromethyl)phenyl]benzamide], the inhibitory constant (Ki) was in the range of 10 to 100 nM.

Take `CN(CCNC(=O)C1CCN(c2ccc(OC(F)(F)F)cc2)CC1)[C@H]1CCN(Cc2ccccc2)C1` [9-17, N-(2-{[(3S)-1-benzylpyrrolidin-3-yl](methyl)amino}ethyl)-1-[4-(trifluoromethoxy)phenyl]piperidine-4-carboxamide]: the Ki lay in the range of 10 to 100 nM.

For the compound `CN(C(=O)c1ccc(Cl)c(-c2nc3ccccc3cc2C#N)c1)[C@@H]1CCN(C2CCCCC2)C1` [9-18, 4-chloro-3-(3-cyanoquinolin-2-yl)-N-[(3R)-1-cyclohexylpyrrolidin-3-yl]-N-methylbenzamide], the Ki lay in the range of 100 to 1000 nM.

On to `O=C(NCCN1CCC(O)(Cc2ccccc2)CC1)c1ccn2cc(-c3ccc(OC(F)(F)F)cc3)nc2c1` [9-19, N-[2-(4-benzyl-4-hydroxypiperidin-1-yl)ethyl]-2-[4-(trifluoromethoxy)phenyl]imidazo[1,2-a]pyridine-7-carboxamide], for which the Ki is 100 to 1000 nM.

Regarding `Cc1cc(Cl)c(-c2cc(C(=O)NCC[C@@H]3CCN(Cc4ccccc4)C3)ccc2Cl)cn1` [9-20, N-{2-[(3R)-1-benzylpyrrolidin-3-yl]ethyl}-4-chloro-3-(4-chloro-6-methylpyridin-3-yl)benzamide], the Ki fell in the range of 100 to 1000 nM.

For the compound `O=C(C1CCN(c2ncc(C(F)(F)F)cc2Cl)CC1)N1CCN(C2CCN(Cc3ccccc3)CC2)CC1` [9-21, 1-(1-benzylpiperidin-4-yl)-4-{1-[3-chloro-5-(trifluoromethyl)pyridin-2-yl]piperidine-4-carbonyl}piperazine], the Ki fell in the range of 10 to 100 nM.

Consider `CN(CCNC(=O)C1CCN(c2cccc(OC(F)(F)F)c2)CC1)[C@@H]1CCN(Cc2ccccc2)C1` [9-22, N-(2-{[(3R)-1-benzylpyrrolidin-3-yl](methyl)amino}ethyl)-1-[3-(trifluoromethoxy)phenyl]piperidine-4-carboxamide], for which the Ki lay within 10 to 100 nM.

Regarding `CN(C(=O)C1CCN(c2ccc(OC(F)(F)F)cc2)CC1)C1CCN(C2CCN(Cc3ccccc3)CC2)C1` (centres unmarked) [9-23, N-[1-(1-benzylpiperidin-4-yl)pyrrolidin-3-yl]-N-methyl-1-[4-(trifluoromethoxy)phenyl]piperidine-4-carboxamide], the Ki lay in the range of 10 to 100 nM.

Consider `N#Cc1cc(N2CCC(C(=O)NCCC3(CO)CCN(Cc4ccccc4)CC3)CC2)ccc1F` [9-24, N-{2-[1-benzyl-4-(hydroxymethyl)piperidin-4-yl]ethyl}-1-(3-cyano-4-fluorophenyl)piperidine-4-carboxamide], for which the Ki is 10 to 100 nM.

For the compound `O=C(NCCC1CCN(Cc2ccccc2)CC1)c1ccn2cc(-c3ccc(OC(F)(F)F)cc3)nc2c1` [9-25, N-[2-(1-benzylpiperidin-4-yl)ethyl]-2-[4-(trifluoromethoxy)phenyl]imidazo[1,2-a]pyridine-7-carboxamide], the Ki was in the range of 10 to 100 nM.

As for `CN(CCNC(=O)C1CCN(c2ccc(OC(F)(F)F)cc2)CC1)[C@@H]1CCN(Cc2ccccc2)C1` [9-26, N-(2-{[(3R)-1-benzylpyrrolidin-3-yl](methyl)amino}ethyl)-1-[4-(trifluoromethoxy)phenyl]piperidine-4-carboxamide], the Ki was in the range of 10 to 100 nM.

On to `O=C(NCCC1CCN(Cc2ccccc2)CC1O)C1CCN(c2ccc(OC(F)(F)F)cc2)CC1` (centres unmarked) [9-27, N-[2-(1-benzyl-3-hydroxypiperidin-4-yl)ethyl]-1-[4-(trifluoromethoxy)phenyl]piperidine-4-carboxamide], for which the Ki was 10 to 100 nM.

As for `O=C(NCCN[C@@H]1CCN(Cc2ccccc2)C1)C1CCN(c2ccc(OC(F)(F)F)c(F)c2)CC1` [9-28, N-(2-{[(3R)-1-benzylpyrrolidin-3-yl]amino}ethyl)-1-[3-fluoro-4-(trifluoromethoxy)phenyl]piperidine-4-carboxamide], the Ki lay within 10 to 100 nM.

Take `N#Cc1ccc(N2CCC(C(=O)NCCC3CCN(Cc4ccccc4)CC3)CC2)cc1` [9-29, N-[2-(1-benzylpiperidin-4-yl)ethyl]-1-(4-cyanophenyl)piperidine-4-carboxamide]: the Ki is 10 to 100 nM.

Regarding `N#Cc1ccc(-c2ccc(C(=O)NCCC3CCN(Cc4ccccc4)CC3)cc2)cc1` [9-30, N-[2-(1-benzylpiperidin-4-yl)ethyl]-4-(4-cyanophenyl)benzamide], the Ki lay in the range of 10 to 100 nM.

Regarding `CN(CCNC(=O)C1CCN(c2cccc(OC(F)(F)F)c2)CC1)[C@H]1CCN(Cc2ccccc2)C1` [9-31, N-(2-{[(3S)-1-benzylpyrrolidin-3-yl](methyl)amino}ethyl)-1-[3-(trifluoromethoxy)phenyl]piperidine-4-carboxamide], the Ki lay in the range of 10 to 100 nM.

For `Cc1nc(-c2ccc(C(F)(F)F)cc2)sc1C(=O)NCCC1CCN(Cc2ccccc2)CC1` [9-32, N-[2-(1-benzylpiperidin-4-yl)ethyl]-4-methyl-2-[4-(trifluoromethyl)phenyl]-1,3-thiazole-5-carboxamide], the Ki is 10 to 100 nM.

As to `CN(C1CCN(C(=O)C2CCN(c3ccc(OC(F)(F)F)cc3)CC2)CC1)[C@@H]1CCN(Cc2ccccc2)C1` [9-33, N-[(3R)-1-benzylpyrrolidin-3-yl]-N-methyl-1-{1-[4-(trifluoromethoxy)phenyl]piperidine-4-carbonyl}piperidin-4-amine], the Ki lay within 10 to 100 nM.

Consider `CN(CCC1CCN(Cc2ccccc2)CC1)C(=O)C1CCN(c2ccc(OC(F)(F)F)cc2)CC1` [9-34, N-[2-(1-benzylpiperidin-4-yl)ethyl]-N-methyl-1-[4-(trifluoromethoxy)phenyl]piperidine-4-carboxamide], for which the Ki was in the range of 100 to 1000 nM.

As for `CN(CCNC(=O)C1CCN(c2ccc(OC(F)(F)F)c(F)c2)CC1)C1CN(Cc2ccccc2)CC1CO` (centres unmarked) [9-35, N-(2-{[1-benzyl-4-(hydroxymethyl)pyrrolidin-3-yl](methyl)amino}ethyl)-1-[3-fluoro-4-(trifluoromethoxy)phenyl]piperidine-4-carboxamide], the Ki lay in the range of 100 to 1000 nM.

Regarding `O=C(CCC1CCN(Cc2ccccc2)CC1)NC1CCN(c2ccc(OC(F)(F)F)cc2)CC1` [9-36, 3-(1-benzylpiperidin-4-yl)-N-{1-[4-(trifluoromethoxy)phenyl]piperidin-4-yl}propanamide], the Ki lay within 100 to 1000 nM.

Regarding `O=C(NCCC1CCN(Cc2ccccc2)CC1)C1CCN(c2ncc(Br)cn2)CC1` [9-37, N-[2-(1-benzylpiperidin-4-yl)ethyl]-1-(5-bromopyrimidin-2-yl)piperidine-4-carboxamide], the Ki fell in the range of 100 to 1000 nM.

In the case of `CN(CCNC(=O)c1ccc(-c2ccccc2)cc1)[C@@H]1CCN(Cc2ccccc2)C1` [9-38, N-(2-{[(3R)-1-benzylpyrrolidin-3-yl](methyl)amino}ethyl)-4-phenylbenzamide], the Ki is 100 to 1000 nM.

On to `CN(CCNC(=O)c1ccc(-c2ccc(OC(F)(F)F)cc2)cc1)[C@@H]1CCN(Cc2ccccc2)C1` [9-39, N-(2-{[(3R)-1-benzylpyrrolidin-3-yl](methyl)amino}ethyl)-4-[4-(trifluoromethoxy)phenyl]benzamide], for which the Ki lay within 10 to 100 nM.
